According to patent US20230295152A1 (SENDA BIOSCIENCES, INC., priority 2019, published 2023):

What was measured:
hERG channels = target: T1, hERG channels (Homo sapiens, UniProt Q12809); assay: hERG Inhibition Assay, patch clamp in hERG stably expressed HEK 293 cell line; format: cell-based; details: read-out: hERG channel: IC50
T1 construct: host or cells: HEK 293
Protocol: hERG stably expressed HEK 293 cell line (Cat #K1236) was purchased from Invitrogen. The cells are cultured in 85% DMEM, 10% dialyzed FBS, 0.1 mM NEAA, 25 mM HEPES, 100 U/mL Penicillin-Streptomycin and 5 μg/mL Blasticidin and 400 μg/mL Geneticin. Cells are split using TrypLE™ Express about three times a week and maintained between ˜40% to ˜80% confluence. Before the assay, the cells were onto the coverslips at 5×10^5 cells/per 6 cm cell culture dish and induced with doxycycline at 1 μg/mL for 48 hours.
External solution (in mM): 132 NaCl, 4 KCl, 3 CaCl2), 0.5 MgCl2, 11.1 glucose, and 10 HEPES (pH adjusted to 7.35 with NaOH). Internal solution (in mM): 140 KCl, 2 MgCl2, 10 EGTA, 10 HEPES and 5 MgATP (pH adjusted to 7.35 with KOH). Working solution preparation for test compound: test compounds were initially prepared in DMSO with final concentration of 10 mM as stock solution. Stock solution of each compound was serial-diluted by ratio of 1:3 with DMSO to prepare additional 3 intermediate solutions including 3.33, 1.11 and 0.37 mM.
Before performing the hERG assay, the working solutions were prepared by dilution of 10, 3.33, 1.11, and 0.37 mM intermediate solutions in 1000 folds using extracellular solution, while 30 μM working solution was prepared by 333.333-folds dilution of 10 mM DMSO stock. so that the final concentration of working solution was 30, 10, 3.33, 1.11 and 0.37 μM. The final DMSO concentration in working solutions was maintained in range of 0.1-0.3% (v/v).
Experimental procedure: the coverslip was removed from the cell culture dish and placed it on the microscope stage in bath chamber. A desirable cell was located using the ×10 objective. The tip of the electrode was located under the microscope using the ×10 objective by focusing above the plane of the cells. Once the tip was in focus, the electrode was advanced downwards towards the cell using the coarse controls of the manipulator, while simultaneously moving the objective to keep the tip in focus. When directly over the cell, the fine controls of the manipulator were used to approach the surface of the cell in small steps, by using the ×40 objective. Gentle suction was applied through the side-port of the electrode holder to form a gigaohm seal.
Cfast was used to remove the capacity current that is in coincidence with the voltage step. The whole cell configuration was obtained by applying repetitive, brief, strong suction until the membrane patch has ruptured. membrane potential was set to −60 mV at this point to ensure that hERG channels were not open. The spikes of capacity current was then cancelled using the Cslow on the amplifier.
Holding potential was set to −90 mV for 500 ms; current was recorder at 20 kHz and filtered at 10 kHz. Leaking current was tested at −80 mV for 500 ms.
The hERG current was elicited by depolarizing at +30 mV for 4.8 seconds and then the voltage was taken back to −50 mV for 5.2 seconds to remove the inactivation and observe the deactivating tail current. The maximum amount of tail current size was used to determine hERG current amplitude. Current was recorded for 120 seconds to assess current stability. Only stable cells with recording parameters above threshold were proceeded with further drug administrations. Vehicle control was applied to the cells to establish the baseline. […] For dose response testing, 5 doses of test compound was applied to the cells cumulatively from low to high concentrations. In order to ensure the good performance of cultured cells and operations, the positive control, Dofetilide, with 5 doses was also used to test the same batch of cells.
The following criteria were used to determine data acceptability: initial seal resistance>1 GΩ; leak currents<50% of the control peak tail currents at any time; the peak tail amplitude>300 pA; membrane resistance Rm>500 MΩ; access resistance (Ra)<15 MΩ; apparent run-down of peak current<2.5% per min. […]

CYP2D6 = target: T2, CYP2D6 (Homo sapiens, UniProt P10635); assay: CYP Inhibition Assay in human liver microsomes, CYP2D6; format: in vitro ADME; details: pH 7.4
T2 construct: from tissue; host or cells: human liver microsomes (HLM)
T2 sequence (P10635 whole entry): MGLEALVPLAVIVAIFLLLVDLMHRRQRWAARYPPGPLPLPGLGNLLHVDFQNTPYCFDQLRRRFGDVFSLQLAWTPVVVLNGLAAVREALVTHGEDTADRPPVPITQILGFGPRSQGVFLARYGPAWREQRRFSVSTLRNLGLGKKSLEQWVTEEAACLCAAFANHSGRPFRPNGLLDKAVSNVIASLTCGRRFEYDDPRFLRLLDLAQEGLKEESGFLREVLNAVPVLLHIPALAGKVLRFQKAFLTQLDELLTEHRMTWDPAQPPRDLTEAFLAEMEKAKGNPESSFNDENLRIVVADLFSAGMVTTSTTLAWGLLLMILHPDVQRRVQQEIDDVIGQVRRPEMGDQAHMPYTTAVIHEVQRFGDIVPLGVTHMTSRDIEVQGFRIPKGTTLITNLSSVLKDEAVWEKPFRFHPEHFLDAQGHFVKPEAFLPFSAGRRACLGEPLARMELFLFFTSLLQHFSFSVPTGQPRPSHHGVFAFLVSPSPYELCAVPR
Protocol: Stock solutions of test compounds were prepared in DMSO at the concentrations of 10 mM. Stock solution was diluted to 2 mM with acetonitrile. The final concentration of test compounds was 10 μM. For the stock solution preparation, if the positive control could not be well dissolved in the mixture of DMSO and acetonitrile (1:4) at the highest concentration, another mixture of acetonitrile and DMSO, the mixture of acetonitrile and H2O or DMSO will be used to dissolve the compound.
The substrate solutions are stored in a −20° C. freezer and warmed to room temperature prior to use.
Preparation of Phosphate Buffer (100 mmol/L, pH 7.4): To prepare the Solution A, 7.098 g of disodium hydrogen phosphate were weighed out and added into 500 mL of pure water, then sonicated to dissolve the content. To prepare the Solution B, 3.400 g of potassium dihydrogen phosphate were weighed out and added into 250 mL of pure water, then sonicated to dissolve the content. Solution A was placed on a stirrer and slowly Solution B was added into Solution A until the pH reached 7.4. Preparation of 10 mmol/L NADPH Solution: NADPH was dissolved at 8.334 mg/mL in phosphate buffer; the solution was freshly prepared prior to use.
The master solution was prepared according to Table 45. The incubation was carried out in 96 deep well plates. The following volumes were dispensed into each well of the incubation plate: 179 μL of the substrate and HLM mixture in phosphate buffer, 1 μL of the compound working solution, or vehicle (mixture of DMSO and acetonitrile (1:4)). The incubation plate was placed into the water bath and pre-warmed at 37° C. for 15 minutes before the reactions was started by the addition of 20 μL of 10 mmol/L NADPH solution in phosphate buffer. After the addition of NADPH, the incubation plate was incubated at 37° C. for corresponding time. The assay was performed in duplicate.
The reaction was quenched by the addition of 1.5 volume (300 μL) of cold acetonitrile containing 3% formic acid and internal standards (200 nM Labetalol, 200 nM Alprazolam and 200 nM tolbutamide). The plate was centrifuged at 3,220 g for 40 minutes. 100 μL of the supernatant was transferred to a new plate. The supernatant was diluted with 100 μL pure water. The samples were mixed well and analyzed using UPLC/MS/MS.
Data Analysis: The automatic peak integration areas are checked for all the samples. The Analyte Peak Area and Internal Standard Peak Area are exported into excel spreadsheet. The inhibition of each P450 enzyme in human liver microsomes is measured as the percentage decrease in the activity of marker metabolite formation compared to non-inhibited controls (=100% activity).
The percentage of remaining activity was calculated as follows:
Area Ratio=Peak Area Analyte/Peak Area Internal Standard Remaining Activity (%)=Area Ratio test compound/Area Ratio vehicle*100% Inhibition %=100-Remaining Activity (%)

T1 sequence (Q12809 whole entry): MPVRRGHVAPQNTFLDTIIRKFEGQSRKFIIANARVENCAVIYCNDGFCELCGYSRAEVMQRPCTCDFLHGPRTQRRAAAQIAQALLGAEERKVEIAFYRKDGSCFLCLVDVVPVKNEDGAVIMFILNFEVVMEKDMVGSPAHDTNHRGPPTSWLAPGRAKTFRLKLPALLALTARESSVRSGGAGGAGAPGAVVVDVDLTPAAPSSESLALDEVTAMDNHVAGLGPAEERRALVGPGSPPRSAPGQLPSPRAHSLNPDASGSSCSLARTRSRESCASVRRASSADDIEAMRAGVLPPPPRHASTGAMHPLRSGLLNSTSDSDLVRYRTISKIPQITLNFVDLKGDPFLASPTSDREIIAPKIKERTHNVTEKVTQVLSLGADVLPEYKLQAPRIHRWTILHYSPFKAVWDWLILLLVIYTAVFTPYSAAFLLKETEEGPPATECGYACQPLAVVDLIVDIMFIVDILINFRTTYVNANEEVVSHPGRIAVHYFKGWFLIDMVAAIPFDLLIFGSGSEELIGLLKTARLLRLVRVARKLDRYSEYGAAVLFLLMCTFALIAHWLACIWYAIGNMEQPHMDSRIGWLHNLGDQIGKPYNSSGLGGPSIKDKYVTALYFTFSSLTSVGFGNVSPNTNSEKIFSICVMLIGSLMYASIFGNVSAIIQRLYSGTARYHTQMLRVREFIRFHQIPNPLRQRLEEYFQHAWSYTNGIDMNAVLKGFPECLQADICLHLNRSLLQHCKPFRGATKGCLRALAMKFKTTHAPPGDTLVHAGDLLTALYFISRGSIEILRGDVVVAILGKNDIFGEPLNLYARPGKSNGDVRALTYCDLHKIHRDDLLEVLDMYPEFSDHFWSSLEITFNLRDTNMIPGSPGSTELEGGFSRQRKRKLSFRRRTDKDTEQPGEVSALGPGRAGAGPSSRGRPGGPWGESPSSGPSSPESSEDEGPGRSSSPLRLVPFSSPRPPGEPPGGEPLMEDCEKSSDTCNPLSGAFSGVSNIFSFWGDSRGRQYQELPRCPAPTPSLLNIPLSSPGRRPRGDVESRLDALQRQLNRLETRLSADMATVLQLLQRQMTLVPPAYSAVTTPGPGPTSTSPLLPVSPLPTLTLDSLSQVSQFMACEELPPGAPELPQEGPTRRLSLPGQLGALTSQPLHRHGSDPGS

Row | Compound | IC50 (hERG channels) | inhibition at 10 µM (CYP2D6)
1 | C[C@@H](CO)n1cnc2c(-c3cccnc3)nc(-c3ccc(C(F)(F)F)cn3)cc2c1=O [Compound 46, (S)-3-(1-hydroxypropan-2-yl)-8-(pyridin-3-yl)-6-(5-(trifluoromethyl)pyridin-2-yl)pyrido[3,4-d]pyrimidin-4(3H)-one] | 8.63 µM | 7.43%
2 | Cn1cc(-c2nc(-c3ccc(C(F)(F)F)nc3)cc3c(=O)n(CC(C)(C)O)cnc23)cn1 [Compound 60] | > 30 µM | –
3 | CC(C)(O)Cn1cnc2c(-n3ccnc3)nc(-c3ccc(C(F)(F)F)cn3)cc2c1=O [Compound 160, 3-(2-hydroxy-2-methylpropyl)-8-(1H-imidazol-1-yl)-6-(5-(trifluoromethyl)pyridin-2-yl)pyrido[3,4-d]pyrimidin-4(3H)-one] | 11.5 µM | –
4 | C[C@@H](CO)n1cnc2c(-c3cccnc3)nc(-c3ccc(C4CC4)nc3)cc2c1=O [Compound 74] | 4.84 µM | 7.27%
5 | CC(C)(O)Cn1cnc2c(-c3cccnc3)nc(-c3ccc(C(F)(F)F)nc3)cc2c1=O [Compound 9] | 12.1 µM | 7.19%
6 | CC(C)(O)Cn1cnc2c(-c3cccnc3)nc(-c3ccc(Cl)cc3)cc2c1=O [Compound 18] | 5.28 µM | 12.1%
7 | Cn1cc(-c2nc(-c3ccc(C(F)(F)F)cn3)cc3c(=O)n(CC(C)(C)O)cnc23)cn1 [Compound 103, 3-(2-hydroxy-2-methylpropyl)-8-(1-methyl-1H-pyrazol-4-yl)-6-(5-(trifluoromethyl)pyridin-2-yl)pyrido[3,4-d]pyrimidin-4(3H)-one] | > 10 µM | 8.7%
8 | C[C@H](n1cnc2c(-c3cnn(C)c3)nc(-c3ccc(Cl)cc3)cc2c1=O)C(C)(C)O [Compound 30] | > 30 µM | 11.2%
9 | C[C@@H](CO)n1cnc2c(-c3cnn(C)c3)nc(-c3ccc(C(F)(F)F)nc3)cc2c1=O [Compound 68] | > 30 µM | 10.9%
10 | CC(C)(O)Cn1cnc2c(-c3cccnc3)nc(-c3ccc(C(F)(F)F)cn3)cc2c1=O [Compound 105] | 11.8 µM | 2.73%
11 | O=c1c2cc(-c3ccc(C(F)(F)F)nc3)nc(-c3cccnc3)c2ncn1[C@@H]1COC[C@H]1O [Compound 79] | > 30 µM | 8%
12 | C[C@@H](CO)n1cnc2c(-c3cccnc3)nc(-c3ccc(C(F)(F)F)nc3)cc2c1=O [Compound 12] | > 10 µM | 8.45%
13 | C[C@@H](CO)n1cnc2c(-c3cnn(C)c3)nc(-c3ccc(Cl)cc3)cc2c1=O [Compound 27] | > 10 µM | 8.96%
14 | CC(C)(O)Cn1cnc2c(-c3cccnc3)nc(-c3ccc(C(F)(F)F)cc3)cc2c1=O [Compound 16] | 4.31 µM | 15.6%
15 | O=c1c2cc(-c3ccc(Cl)cc3)nc(-c3cccnc3)c2ncn1[C@H]1COC[C@@H]1O [Compound 125, 6-(4-chlorophenyl)-3-((3S,4R)-4-hydroxytetrahydrofuran-3-yl)-8-(pyridin-3-yl)pyrido[3,4-d]pyrimidin-4(3H)-one] | 7.67 µM | 20.6%
16 | C[C@@H](CO)n1cnc2c(-c3cccc(F)c3)nc(-c3ccc(Cl)cc3)cc2c1=O [Compound 7] | > 30 µM | 6.78%
